Measured values from ChEMBL document CHEMBL1127517 (J Med Chem, 1994).

Legend:
[1] = system: Rattus norvegicus; assay: Distribution of radio activity in tissues of unfasted male rats was measured as regional uptake at 2 min of time in cortex after intravenous administration; assay type: ADME, organism-based; conditions: in vivo
[2] = system: Rattus norvegicus; assay: Distribution of radio activity in tissues of unfasted male rats was measured at 30 min of time in heart after intravenous administration; assay type: ADME, organism-based; conditions: in vivo, 0.5 h
[3] = system: Rattus norvegicus; assay: Distribution of radio activity in tissues of unfasted male rats was measured as regional uptake at 120 min of time in hippocampus after intravenous administration; assay type: ADME, organism-based; conditions: in vivo, 2 h
[4] = system: Rattus norvegicus; assay: Distribution of radio activity in tissues of unfasted male rats was measured at 60 min of time in blood after intravenous administration; assay type: ADME, organism-based; conditions: in vivo, 1 h
[5] = system: Rattus norvegicus; assay: Distribution of radio activity in tissues of unfasted male rats was measured as regional uptake at 2 min of time in striatum after intravenous administration; assay type: ADME, organism-based; conditions: in vivo
[6] = system: Rattus norvegicus; assay: Distribution of radio activity in tissues of unfasted male rats was measured at 30 min of time in lung after intravenous administration; assay type: ADME, organism-based; conditions: in vivo, 0.5 h
[7] = system: Rattus norvegicus; assay: Distribution of radio activity in tissues of unfasted male rats was measured at 60 min of time in thyroid after intravenous administration; assay type: ADME, organism-based, Thyroid gland; conditions: in vivo, 1 h
[8] = target: Sodium-dependent dopamine transporter (Rattus norvegicus, UniProt P23977); assay: Inhibitory constant towards reuptake of [125I]-12 from dopamine transporter in rat striatal membranes; assay type: cell membranes, Membrane
Sequence of Sodium-dependent dopamine transporter (P23977 whole entry): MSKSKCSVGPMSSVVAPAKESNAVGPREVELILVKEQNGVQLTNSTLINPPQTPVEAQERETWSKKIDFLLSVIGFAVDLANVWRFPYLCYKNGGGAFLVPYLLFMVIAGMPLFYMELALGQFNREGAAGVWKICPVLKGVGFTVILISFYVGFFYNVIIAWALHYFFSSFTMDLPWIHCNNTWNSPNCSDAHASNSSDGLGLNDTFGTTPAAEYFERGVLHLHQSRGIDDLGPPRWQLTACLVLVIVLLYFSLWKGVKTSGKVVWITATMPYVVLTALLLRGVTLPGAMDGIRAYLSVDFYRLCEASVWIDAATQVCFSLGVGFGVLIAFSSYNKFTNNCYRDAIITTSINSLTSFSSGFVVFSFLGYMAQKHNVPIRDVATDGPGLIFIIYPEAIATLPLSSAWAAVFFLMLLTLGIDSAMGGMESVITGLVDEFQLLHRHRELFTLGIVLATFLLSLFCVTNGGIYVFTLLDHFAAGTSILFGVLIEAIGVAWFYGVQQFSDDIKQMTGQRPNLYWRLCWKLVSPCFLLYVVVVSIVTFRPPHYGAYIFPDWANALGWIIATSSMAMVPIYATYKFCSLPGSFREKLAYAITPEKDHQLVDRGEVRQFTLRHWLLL

[9] = system: Rattus norvegicus; assay: Distribution of radio activity in tissues of unfasted male rats was measured as regional uptake at 30 min of time in hippocampus after intravenous administration; assay type: ADME, organism-based; conditions: in vivo, 0.5 h
[10] = system: Rattus norvegicus; assay: Distribution of radio activity in tissues of unfasted male rats was measured at 2 min of time in liver after intravenous administration; assay type: ADME, organism-based; conditions: in vivo
[11] = system: Rattus norvegicus; assay: Distribution of radio activity in tissues of unfasted male rats was measured as regional uptake at 2 min of time in hippocampus after intravenous administration; assay type: ADME, organism-based; conditions: in vivo
[12] = system: Rattus norvegicus; assay: Distribution of radio activity in tissues of unfasted male rats was measured at 2 min of time in spleen after intravenous administration; assay type: ADME, organism-based; conditions: in vivo
[13] = system: Rattus norvegicus; assay: Distribution of radio activity in tissues of unfasted male rats was measured at 120 min of time in kidney after intravenous administration; assay type: ADME, organism-based; conditions: in vivo, 2 h
[14] = system: Rattus norvegicus; assay: Distribution of radio activity in tissues of unfasted male rats was measured at 120 min of time in spleen after intravenous administration; assay type: ADME, organism-based; conditions: in vivo, 2 h
[15] = system: Rattus norvegicus; assay: Distribution of radio activity in tissues of unfasted male rats was measured as regional uptake at 2 min of time in ST/CB after intravenous administration; assay type: ADME, organism-based; conditions: in vivo
[16] = system: Rattus norvegicus; assay: Distribution of radio activity in tissues of unfasted male rats was measured at 2 min of time in muscle after intravenous administration; assay type: ADME, organism-based, Muscle tissue; conditions: in vivo
[17] = system: Rattus norvegicus; assay: Distribution of radio activity in tissues of unfasted male rats was measured at 60 min of time in lung after intravenous administration; assay type: ADME, organism-based; conditions: in vivo, 1 h
[18] = system: Rattus norvegicus; assay: Distribution of radio activity in tissues of unfasted male rats was measured at 60 min of time in kidney after intravenous administration; assay type: ADME, organism-based; conditions: in vivo, 1 h
[19] = system: Rattus norvegicus; assay: Distribution of radio activity in tissues of unfasted male rats was measured at 120 min of time in blood after intravenous administration; assay type: ADME, organism-based; conditions: in vivo, 2 h
[20] = system: Rattus norvegicus; assay: Distribution of radio activity in tissues of unfasted male rats was measured at 60 min of time in spleen after intravenous administration; assay type: ADME, organism-based; conditions: in vivo, 1 h
[21] = system: Rattus norvegicus; assay: Distribution of radio activity in tissues of unfasted male rats was measured at 30 min of time in spleen after intravenous administration; assay type: ADME, organism-based; conditions: in vivo, 0.5 h
[22] = system: Rattus norvegicus; assay: Distribution of radio activity in tissues of unfasted male rats was measured at 60 min of time in heart after intravenous administration; assay type: ADME, organism-based; conditions: in vivo, 1 h
[23] = system: Rattus norvegicus; assay: Distribution of radio activity in tissues of unfasted male rats was measured at 30 min of time in blood after intravenous administration; assay type: ADME, organism-based; conditions: in vivo, 0.5 h
[24] = system: Rattus norvegicus; assay: Distribution of radio activity in tissues of unfasted male rats was measured as regional uptake at 120 min of time in cortex after intravenous administration; assay type: ADME, organism-based; conditions: in vivo, 2 h
[25] = system: Rattus norvegicus; assay: Distribution of radio activity in tissues of unfasted male rats was measured at 120 min of time in skin after intravenous administration; assay type: ADME, organism-based; conditions: in vivo, 2 h
[26] = system: Rattus norvegicus; assay: Distribution of radio activity in tissues of unfasted male rats was measured at 60 min of time in liver after intravenous administration; assay type: ADME, organism-based; conditions: in vivo, 1 h
[27] = system: Rattus norvegicus; assay: Distribution of radio activity in tissues of unfasted male rats was measured at 30 min of time in brain after intravenous administration; assay type: ADME, organism-based; conditions: in vivo, 0.5 h
[28] = system: Rattus norvegicus; assay: Distribution of radio activity in tissues of unfasted male rats was measured at 2 min of time in brain after intravenous administration; assay type: ADME, organism-based; conditions: in vivo
[29] = system: Rattus norvegicus; assay: Distribution of radio activity in tissues of unfasted male rats was measured at 120 min of time in thyroid after intravenous administration; assay type: ADME, organism-based, Thyroid gland; conditions: in vivo, 2 h
[30] = system: Rattus norvegicus; assay: Distribution of radio activity in tissues of unfasted male rats was measured as regional uptake at 30 min of time in cerebellum after intravenous administration; assay type: ADME, organism-based; conditions: in vivo, 0.5 h
[31] = system: Rattus norvegicus; assay: Distribution of radio activity in tissues of unfasted male rats was measured at 30 min of time in thyroid after intravenous administration; assay type: ADME, organism-based, Thyroid gland; conditions: in vivo, 0.5 h

COC(=O)C1C(c2ccc(Cl)cc2)CC2CCC1N2C/C=C\I (stereo unspecified)
Dose/g [1]: 0.91% | Injected dose/organ [2]: 0.22% | Dose/g [3]: 0.03% | Injected dose/organ [4]: 5.77% | Dose/g [5]: 0.92% | Injected dose/organ [6]: 0.78% | Injected dose/organ [7]: 0.94% | Ki [8]: 1.27 nM | Dose/g [9]: 0.12% | Injected dose/organ [10]: 12.13% | Dose/g [11]: 0.69% | Injected dose/organ [12]: 0.4% | Injected dose/organ [13]: 0.46% | Injected dose/organ [14]: 0.09% | Dose/g [15]: 1.12% | Injected dose/organ [16]: 29.15% | Injected dose/organ [17]: 0.5% | Injected dose/organ [18]: 0.56% | Injected dose/organ [19]: 5.16% | Injected dose/organ [20]: 0.11% | Injected dose/organ [21]: 0.19% | Injected dose/organ [22]: 0.16% | Injected dose/organ [23]: 8% | Dose/g [24]: 0.03% | Injected dose/organ [25]: 19.3% | Injected dose/organ [26]: 1.6% | Injected dose/organ [27]: 0.21% | Injected dose/organ [28]: 1.27% | Injected dose/organ [29]: 1.29% | Dose/g [30]: 0.19% | Injected dose/organ [31]: 1.02%
